Results taken from US8415357B2 (Canbas Co., Ltd., priority 2007, dated 2013).

System: Jurkat cells
Test: Adaptation to G2 cell cycle arrest (G1 increment) in X-ray pre-arrested Jurkat cells, flow cytometry
Format: cell-based, human
Conditions: Table 2, concentration causing half-maximal increase of % cells in G1 phase (G1 increment), Jurkat pre-arrested by 10 Gy X-ray, 24 hours with compound
Method: Phenotype-based screening was used to measure the ability of compounds of the invention to cause adaptation to G2 cell cycle arrest in G2-arrested cells. Adaptation to G2 cell cycle arrest and re-entry into the cell cycle can result in death of the previously G2-arrested cell, or suppression (inhibition) of further proliferation of the previously G2-arrested cell. In a non-limiting embodiment, the ability to cause adaptation to G2 cell cycle arrest was measured by contacting cells in which G2 arrest had been induced by irradiation (e.g., gamma (γ) radiation or X-ray radiation), with compounds of the invention at various concentrations and, for each compound at each concentration, determining the percentage of cells that escaped G2 arrest and re-entered the cell cycle, by determining the percentage of cells in G1 phase. The IC50 value for each compound was calculated as the dosage (usually in μM) that caused half-maximal increase of the percentage of cells in G1 phase (the G1 increment) measured for that compound. Certain invention compounds were initially identified by phenotype-based screening of small molecule libraries for activity against G2-arrested cells as described above.
Jurkat cells (a human T cell lymphoma-derived cell line) were arrested at the G2 phase by X-ray irradiation at 10 Gy, and cultured for 24 hours in 10% fetal calf serum (FCS)/RPMI1640 at 37° C. with 5% CO2/air. (FCS was from Equitech-Bio, Kerrville, Tex., and RPMI1640 was from Sigma-Aldrich, St. Louis, Mo.) Test compounds were added to the medium at the indicated doses, and the cells were cultured under the conditions described above, for an additional 24 hours before harvesting.
Harvested cells were stained with Krishan's buffer (0.1% sodium citrate, 50 μg/ml propidium iodide, 20 μg/ml RNase A, 0.5% Nonidet P-40) and analyzed by flow cytometry (BD Biosciences, Franklin Lakes, N.J.) to identify the cell stage of each cell in the sample. Cells in G1 phase were identified by having […] (2N) DNA content.
The IC50 value for each compound was calculated as the dosage showing half maximal activity to induce the increase of the percentage of cells in G1 phase (the G1 increment). IC50 values were used to measure the activity of compounds and to determine structure-activity relationships.
Pre-arrested Jurkat cells were prepared as described in Example 1. Briefly, Jurkat cells were subjected to X-ray irradiation at a dose of 10 Gy, and cultured for 24 hours in 10% fetal calf serum (FCS)/RPMI1640 at 37° C. with 5% CO2/air, after which time cells were exposed to various concentrations of test compounds, and cultured under the conditions described above for an additional 24 hours before harvesting. Harvested cells were stained with Krishan's buffer (0.1% sodium citrate, 50 μg/ml propidium iodide, 20 μg/ml RNase A, 0.5% Nonidet P-40) and analyzed by flow cytometry (BD Biosciences, Franklin Lakes, N.J.) to identify the cell stage of each cell in the sample. Cells in G1 phase were identified by having […] (2N) DNA content.
The IC50 value for each compound was calculated as the dosage (concentration in μM) that caused half-maximal increase of the percentage of cells in G1 phase (the G1 increment) measured for that test compound. Table 1 below presents the structure, mass, 1H NMR values, and […] values for representative compounds.
The IC50 value for each compound was calculated as the dosage (concentration in μM) that caused half-maximal increase of the percentage of cells in G1 phase (the G1 increment) measured for that test compound. Table 2 below presents structures, IUPAC name, molecular formula, ID number (“SCID”), mass, 1H NMR values, and IC50 values for representative compounds. Table 3 presents structures, IUPAC name, molecular formula, ID number (“SCID”), mass, 1H NMR values, and IC50 values for further representative compounds.

IC50 (Homo sapiens, Jurkat, 24 h)	IC50	Structure (SMILES)
200 nM	–	CC1=C(C)C(=O)N(Nc2ccc(C(F)(F)F)c(Br)n2)C1=O [Compound S00994, 1-{[6-bromo-5-(trifluoromethyl)(2-pyridyl)]amino}-3,4-dimethylazoline-2,5-dione]
200 nM	–	CC1=C(C)C(=O)N(Nc2cc(Cl)c3cccc(Cl)c3n2)C1=O [Compound S01005, 1-[(4,8-dichloro(2-quinolyl))amino]-3,4-dimethylazoline-2,5-dione]
120 nM	–	CC1=C(C)C(=O)N(N(C)c2ccc(C(F)(F)F)c(Br)n2)C1=O [Compound S01007, 1-{[6-bromo-5-(trifluoromethyl)(2-pyridyl)]methylamino}-3,4-dimethylazoline-2,5-dione]
625 nM	–	CC1=C(C)C(=O)N(Nc2cc(CO)c3ccc(Br)cc3n2)C1=O [Compound S01037, 1-{[7-bromo-4-(hydroxymethyl)(2-quinolyl)]amino}-3,4-dimethylazoline-2,5-dione]
625 nM	–	CC(=O)OCc1cc(NN2C(=O)C(C)=C(C)C2=O)nc2cc(Br)ccc12 [Compound S01047, {2-[(3,4-dimethyl-2,5-dioxoazolinyl)amino]-7-bromo-4-quinolyl}methylacetate]
78 nM	–	CC1=C(C)C(=O)N(Nc2cc(Cl)c3ccc(Cl)c(Cl)c3n2)C1=O [Compound S01078, 3,4-dimethyl-1-[(4,7,8-trichloro(2-quinolyl))amino]azoline-2,5-dione]
450 nM	–	CC1=C(C)C(=O)N(Nc2nc(Cl)cc3ccccc23)C1=O [Compound S01098, 1-[(3-chloroisoquinolyl)amino]-3,4-dimethylazoline-2,5-dione]
625 nM	–	COc1ccc(-c2cc(NN3C(=O)C(C)=C(C)C3=O)nc3c(Cl)cccc23)cc1 [Compound S01191, 1-{[8-chloro-4-(4-methoxyphenyl)(2-quinolyl)]amino}-3,4-dimethylazoline-2,5-dione]
625 nM	–	CC1=C(C)C(=O)N(Nc2cc(Cl)c3ccc4ccccc4c3n2)C1=O [Compound S01207, 1-[(4-chlorobenzo[h]quinolin-2-yl)amino]-3,4-dimethylazoline-2,5-dione]
78 nM	–	CC1=C(C)C(=O)N(Nc2cc(Cl)c3cccc(Br)c3n2)C1=O [Compound S01247, 1-[(8-bromo-4-chloro(2-quinolyl))amino]-3,4-dimethylazoline-2,5-dione]
200 nM	–	CC1=C(C)C(=O)N(Nc2ccc(C(F)(F)F)c(-c3ccccc3)n2)C1=O [Compound S01266, 3,4-dimethyl-1-{[6-phenyl-5-(trifluoromethyl)(2-pyridyl)]amino}azoline-2,5-dione]
625 nM	–	CC1=C(C)C(=O)N(Nc2cc(CN3CCN(Cc4ccccc4)CC3)c3ccc(Br)cc3n2)C1=O [Compound S01268, 1-[(7-bromo-4-{[4-benzylpiperazinyl]methyl}(2-quinolyl))amino]-3,4-dimethylazoline-2,5-dione]
300 nM	–	CC1=C(C)C(=O)N(Nc2cc(Cl)c3ccc(Br)cc3n2)C1=O [Compound S01311, 1-[(7-bromo-4-chloro(2-quinolyl))amino]-3,4-dimethylazoline-2,5-dione]
300 nM	–	CC1=C(C)C(=O)N(Nc2ccc(C(F)(F)F)c(-c3ccc(F)c(Cl)c3)n2)C1=O [Compound S01313, 1-{[6-(3-chloro-4-fluorophenyl)-5-(trifluoromethyl)(2-pyridyl)]amino}-3,4-dimethylazoline-2,5-dione]
625 nM	–	CC1=C(C)C(=O)N(Nc2ccc(C(F)(F)F)c(-c3ccc(Cl)cc3)n2)C1=O [Compound S01371, 1-{[6-(4-chlorophenyl)-5-(trifluoromethyl)(2-pyridyl)]amino}-3,4-dimethylazoline-2,5-dione]
625 nM	–	CC1=C(C)C(=O)N(Nc2ccc(C(F)(F)F)c(-c3ccc(C)cc3)n2)C1=O [Compound S01393, 3,4-dimethyl-1-{[6-(4-methylphenyl)-5-(trifluoromethyl)(2-pyridyl)]amino}azoline-2,5-dione]
156 nM	–	CC1=C(C)C(=O)N(Nc2cc(C(F)(F)F)c3ccc(Cl)c(Cl)c3n2)C1=O [Compound S01455, 1-{[7,8-dichloro-4-(trifluoromethyl)(2-quinolyl)]amino}-3,4-dimethylazoline-2,5-dione]
300 nM	–	CC1=C(C)C(=O)N(Nc2ccc(C(F)(F)F)c(CC(C)C)n2)C1=O [Compound S01457, 3,4-dimethyl-1-{[6-(2-methylpropyl)-5-(trifluoromethyl)(2-pyridyl)]amino}azoline-2,5-dione]
200 nM	–	CC1=C(CO)C(=O)N(Nc2ccc(C(F)(F)F)c(Cl)n2)C1=O [Compound S01470, 1-{[6-chloro-5-(trifluoromethyl)(2-pyridyl)]amino}-3-(hydroxymethyl)-4-methylazoline-2,5-dione]
200 nM	–	CC(=O)N(c1ccc(C(F)(F)F)c(Cl)n1)N1C(=O)C(C)=C(C)C1=O [Compound S01473, N-(3,4-dimethyl-2,5-dioxoazolinyl)-N-[6-chloro-5-(trifluoromethyl) (2-pyridyl)]acetamide]
625 nM	–	CC1=C(C)C(=O)N(Nc2ccc(C(F)(F)F)c(-c3cccc(Cl)c3)n2)C1=O [Compound S01474, 1-{[6-(3-chlorophenyl)-5-(trifluoromethyl)(2-pyridyl)]amino}-3,4-dimethylazoline-2,5-dione]
500 nM	–	CC1=C(C)C(=O)N(Nc2ccc(C(F)(F)F)c(C#N)n2)C1=O [Compound S01475, 6-[(3,4-dimethyl-2,5-dioxoazolinyl)amino]-3-(trifluoromethyl)pyridine-2-carbonitrile]
450 nM	–	CCC1=C(C)C(=O)N(Nc2ccc(C(F)(F)F)c(Cl)n2)C1=O [Compound S01553, 1-{[6-chloro-5-(trifluoromethyl)(2-pyridyl)]amino}-3-ethyl-4-methylazoline-2,5-dione]
120 nM	–	CC1=C(CCC(C)C)C(=O)N(Nc2ccc(C(F)(F)F)c(Cl)n2)C1=O [Compound S01554, 1-{[6-chloro-5-(trifluoromethyl)(2-pyridyl)]amino}-4-methyl-3-(3-methylbutyl)azoline-2,5-dione]
–	78 nM	CC1=C(C)C(=O)N(Nc2cc(CN3CCN(C(=O)OC(C)(C)C)CC3)c3ccc(Br)cc3n2)C1=O [Compound S01589, tert-butyl 4-({2-[(3,4-dimethyl-2,5-dioxoazolinyl)amino]-7-bromo-4-quinolyl}methyl)piperazinecarboxylate]
120 nM	–	COCC1=C(C)C(=O)N(Nc2ccc(C(F)(F)F)c(Cl)n2)C1=O [Compound S01599, 1-{[6-chloro-5-(trifluoromethyl)(2-pyridyl)]amino}-3-(methoxymethyl)-4-methylazoline-2,5-dione]
625 nM	–	COCC1=C(C)C(=O)N(N(C)c2ccc(C(F)(F)F)c(Cl)n2)C1=O [Compound S01600, 1-{[6-chloro-5-(trifluoromethyl)(2-pyridyl)]methylamino}-3-(methoxymethyl)-4-methylazoline-2,5-dione]
78 nM	–	COC(=O)CCC1=C(C)C(=O)N(Nc2ccc(C(F)(F)F)c(Cl)n2)C1=O [Compound S01648, Methyl 3-(1-{[6-chloro-5-(trifluoromethyl)(2-pyridyl)]amino}-4-methyl-2,5-dioxoazolin-3-yl)propanoate]
625 nM	–	CC1=C(C)C(=O)N(Nc2cc(CN3CCN(C(=O)OCc4ccccc4)CC3)c3ccc(Br)cc3n2)C1=O [Compound S01683, Phenylmethyl4-({2-[(3,4-dimethyl-2,5-dioxoazolinyl)amino]-7-bromo-4-quinolyl}methyl)piperazinecarboxylate]
625 nM	–	CC1=C(C)C(=O)N(Nc2cc(Cl)nc(-c3ccccc3)c2C(F)(F)F)C1=O [Compound S01688, 1-{[6-chloro-2-phenyl-3-(trifluoromethyl)(4-pyridyl)]amino}-3,4-dimethylazoline-2,5-dione]
